Laboratory results as given in patent publication US20200397001A1, “CONTROL OF PESTS OF SOYBEAN PLANTS WITH MESOIONIC COMPOUNDS” (BASF SE, priority 2018, published 2020).

Columns and labels:
Assay type in all cases: in vivo
Halyomorpha halys = experiment: Brown marmorated stink bug spray test on soybean seeds in cups; conditions: 300 ppm, adults on soybean seeds, 5 days after treatment
Method: Halyomorpha halys (Brown Marmorated Stink Bug)
For evaluating control of Halyomorpha halys the active compound is dissolved at the desired concentration in a mixture of 1:1 (vol:vol) distilled water:acetone with 0.005% (v/v) of Tween 20 added as surfactant. Soybean seeds are placed in a small petri dish inside a plastic cup 10 adults (5 females and 5 males) are introduced into each cup. Using an airbrush sprayer, 1 mL solution was sprayed directly inside the cups with bean pods. After drying, a water source (wet cotton in a small petri dish) is placed in each cup, and the cups closed with ventilated cover. All cups held under constant temperature of 20° C., 16L:8D photoperiod. Live insects are counted at 5 days after treatment.

Euschistus heros = experiment: Brown stink bug test on sprayed soybean seedlings of Intacta and BMX-Potencia; conditions: 100 ppm, 6 days after application; for efficacy on soybean with Bacillus thuringiensis toxin trait (INTACTA) versus soybean without the trait (BMX-POTENCIA): sprayed seedlings; for mortality (corrected according to Abbott): sprayed soybean seedlings of Intacta and BMX-Potencia, adults
Method: Brown Stink Bug (Euschistus heros)
The active compound is dissolved at the desired concentration in a mixture of 1:1 (vol:vol) distilled water:acetone. Soybean seedlings of Intacta and BMX-Potencia with one pair of true leaves were sprayed 10 with 2 ml solution using an airbrush. After dry, the plants in small pots were placed inside a transparent plastic cage and infested with 10 adults adult stage individuals. Treated cups were kept at about 25° C. Percent mortality was recorded after 6 days after application. […] Entomal., 18 (1925) 265-267.

Nezara viridula = experiment: Green soldier stink bug soil drench test on lima bean plants; conditions: 250 g ai/ha, 2nd instar nymphs infested 3 days after treatment, read 4 days after infestation
Method: Green Soldier Stink Bug (Nezara viridula)
Lima Bean (Phaseolus lunatus, ‘Henderson Bush,’ Lot #—VR06650) plants were transplanted at the two true-leaf stage into 25.8 cm2 pots filled with sifted (No. 10 sieve). Pots were held in the greenhouse and watered daily until treatment. Three days after transplant, the compounds were dissolved in acetone and then diluted with water for a final concentration of 50% acetone. Treatments were applied as a drench in 1 ml solution per plant. Plants were held in an environmental chamber (25±2° C., 24 L) and watered as needed for the duration of the test.
Three days after treatment, plants were infested with five 2nd instar nymphs. Plants were 15 covered with organza fabric bags to prevent escape. Four days after infestation, the number of live nymphs on each plant was recorded, and means were calculated for each treatment. The percent control was calculated as the percent mortality relative to the solvent blank.

SMILES	mortality in comparison with untreated controls (Halyomorpha halys)	efficacy on soybean with Bacillus thuringiensis toxin trait (INTACTA) versus soybean without the trait (BMX-POTENCIA) (Euschistus heros)	mortality (corrected according to Abbott) (Euschistus heros)	mortality in comparison with untreated controls (percent control relative to the solvent blank) (Nezara viridula)
Cc1cccc(-c2c([O-])[n+]3ccccc3n(CCC#N)c2=O)c1 [Compound C-6]	at least 75%			
N#CCCn1c(=O)c(-c2cc(C3CC3)cc(C(F)(F)F)c2)c([O-])[n+]2ccccc12 [Compound C-8]		higher efficacy	68%	at least 75%
N#CCCn1c(=O)c(-c2ccc(F)cc2)c([O-])[n+]2ccccc12 [Compound C-9]		higher efficacy	70%	
